According to ChEMBL document CHEMBL4028883 (J Med Chem, 2017):
≈ marks a conversion by molar mass, not a printed value.

Legend:
[1] = Mean residence time in rabbit at 0.5 mg/kg; format: ADME, organism-based, Oryctolagus cuniculus; conditions: in vivo
in vivo [2] = conditions: rat, iv
[3] = Chemical stability of the compound in phosphate buffer at pH 7.4 at 37 degC after 90 days by HPLC method; format: physicochemical; conditions: read-out: Stability
[4] = Half life in cynomolgus monkey at 2.03 mg/kg; format: ADME, organism-based, Macaca fascicularis; conditions: in vivo
[5] = Total AUC in dog at 4.75 mg/kg; format: ADME, organism-based, Canis lupus familiaris; design: dose 4.75 mg/kg, time AUCmax; conditions: in vivo
[6] = Solubility of the compound in Tris buffer at pH 8; format: physicochemical
[7] = Total AUC in cynomolgus monkey at 2.03 mg/kg; format: ADME, organism-based, Macaca fascicularis; design: dose 2.03 mg/kg, time AUCmax; conditions: in vivo
[8] = Chemical stability of the compound in phosphate buffer at pH 6.5 at 50 degC after 90 days by HPLC method; format: physicochemical; conditions: read-out: Stability
[9] = Clearance in rabbit at 0.5 mg/kg; format: ADME, organism-based, Oryctolagus cuniculus; conditions: in vivo
[10] = Volume of distribution at steady state in dog at 4.75 mg/kg; format: ADME, organism-based, Canis lupus familiaris; conditions: in vivo, read-out: Vdss
[11] = Clearance in cynomolgus monkey at 2.03 mg/kg; format: ADME, organism-based, Macaca fascicularis; conditions: in vivo
[12] = Chemical stability of the compound in phosphate buffer at pH 6.5 at 37 degC after 90 days by HPLC method; format: physicochemical; conditions: read-out: Stability
[13] = Chemical stability of the compound in Tris buffer at pH 8 at 50 degC after 90 days by HPLC method; format: physicochemical; conditions: read-out: Stability
[14] = Chemical stability of the compound in phosphate buffer at pH 6.5 at 25 degC after 90 days by HPLC method; format: physicochemical; conditions: read-out: Stability
[15] = Solubility of the compound in phosphate buffer at pH 7.4; format: physicochemical
[16] = Half life in rabbit at 0.5 mg/kg; format: ADME, organism-based, Oryctolagus cuniculus; conditions: in vivo
[17] = Aqueous solubility of the compound at pH 8.3; format: physicochemical; conditions: aqueous medium
[18] = Base dissociation constant, pKa of the compound; format: physicochemical
[19] = Clearance in rat at 0.5 mg/kg; format: ADME, organism-based; conditions: in vivo
[20] = Chemical stability of the compound in Tris buffer at pH 8 at 25 degC after 90 days by HPLC method; format: physicochemical; conditions: read-out: Stability
[21] = Half life in rat at 0.5 mg/kg; format: ADME, organism-based; conditions: in vivo
[22] = Total AUC in rabbit at 0.5 mg/kg; format: ADME, organism-based, Oryctolagus cuniculus; design: dose 0.5 mg/kg, time AUCmax; conditions: in vivo
[23] = Lipophilicity, log D of the compound by HPLC method; format: physicochemical
in vivo [24] = conditions: rat, iv; remark: listed apart in the source
[25] = Clearance in dog at 4.75 mg/kg; format: ADME, organism-based, Canis lupus familiaris; conditions: in vivo
[26] = Mean residence time in rat at 0.5 mg/kg; format: ADME, organism-based; conditions: in vivo
[27] = Volume of distribution at steady state in rabbit at 0.5 mg/kg; format: ADME, organism-based, Oryctolagus cuniculus; conditions: in vivo, read-out: Vdss
[28] = Chemical stability of the compound in Tris buffer at pH 8 at 37 degC after 90 days by HPLC method; format: physicochemical; conditions: read-out: Stability
in vitro [29] = conditions: human, liver microsomes
[30] = Mean residence time in cynomolgus monkey at 2.03 mg/kg; format: ADME, organism-based, Macaca fascicularis; conditions: in vivo
[31] = Total AUC in rat at 0.5 mg/kg; format: ADME, organism-based; design: dose 0.5 mg/kg, time AUCmax; conditions: in vivo
[32] = Aqueous solubility of the compound at pH 6.7; format: physicochemical; conditions: aqueous medium
[33] = Volume of distribution at steady state in cynomolgus monkey at 2.03 mg/kg; format: ADME, organism-based, Macaca fascicularis; conditions: in vivo, read-out: Vdss
[34] = Half life in dog at 4.75 mg/kg; format: ADME, organism-based, Canis lupus familiaris; conditions: in vivo
[35] = Half life in dog liver microsomes; format: ADME, Canis lupus familiaris, microsome
[36] = Aqueous solubility of the compound at pH 8.5; format: physicochemical; conditions: aqueous medium
[37] = Chemical stability of the compound in phosphate buffer at pH 7.4 at 25 degC after 90 days by HPLC method; format: physicochemical; conditions: read-out: Stability
physchem = conditions: phosphate buffer, pH 6.5
in vitro [38] = conditions: rat, liver microsomes
in vivo [39] = conditions: rat, iv; remark: listed apart in the source
[40] = Chemical stability of the compound in phosphate buffer at pH 7.4 at 50 degC after 90 days by HPLC method; format: physicochemical; conditions: read-out: Stability
[41] = Volume of distribution at steady state in rat at 0.5 mg/kg; format: ADME, organism-based; conditions: in vivo, read-out: Vdss
[42] = Acid dissociation constant, pKa of the compound; format: physicochemical
in vivo [43] = conditions: rat, iv; remark: listed apart in the source

CN1CCN(c2cccc3c2CCN(C(=O)/C=C/c2c(-n4cnnn4)ccc(Cl)c2F)[C@@H]3C(=O)Nc2ccc(C(=O)O)cc2)C(=O)C1 [BMS-962212]
MRT [1]: < 60 min
clearance (in vivo [2]): 16 mL/min/kg
remaining at […] [3]: 99%
half-life [4]: 46.8 min
AUC [5]: 7.76 µM·h
solubility [6]: 11000 µg/mL (≈ 16700 µM)
AUC [7]: 1.59 µM·h
remaining at […] [8]: 95.4%
clearance [9]: 43 mL/min/kg
Vd [10]: 1.02 L/kg
clearance [11]: 31 mL/min/kg
remaining at […] [12]: 99.8%
remaining at […] [13]: 94%
remaining at […] [14]: 99.9%
solubility [15]: 1500 µg/mL (≈ 2280 µM)
half-life [16]: 36 min
solubility [17]: > 25000 µg/mL
pKa [18]: 4.7
clearance [19]: 31 mL/min/kg
remaining at […] [20]: 99%
half-life [21]: 13.2 min
AUC [22]: 0.27 µM·h
logD [23]: 1.4
Vd (in vivo [24]): 0.75 L/kg
clearance [25]: 15 mL/min/kg
MRT [26]: < 60 min
Vd [27]: 0.71 L/kg
remaining at […] [28]: 99.7%
half-life (in vitro [29]): 108 to 120 min
MRT [30]: < 60 min
AUC [31]: 0.441 µM·h
solubility [32]: 260 µg/mL (≈ 394 µM)
Vd [33]: 1.16 L/kg
half-life [34]: 63 min
half-life [35]: 120 min
solubility [36]: > 100000 µg/mL
remaining at […] [37]: 100%
solubility at 24 h (physchem): 880 µg/mL (≈ 1340 µM)
half-life (in vitro [38]): 59 min
half-life (in vivo [39]): 52.8 min
remaining at […] [40]: 94.6%
Vd [41]: 0.32 L/kg
pKa [42]: 4.1
AUC (in vivo [43]): 0.309 µM·h
